From patent EP1525218B1, “BICYCLIC OLIGOPEPTIDES AND THEIR USE AS GLUCAGON RECEPTOR ANTAGONISTS” (Boehringer Ingelheim Pharma GmbH & Co.KG, priority 2002, dated 2004)
Read-outs that look alike come from different tables or passages of the source. Positions of bridges follow the written chain, without caps; N, C: chain ends. Residues, ends and D or L forms follow the SMILES beside them.

Experiments:
[1] = Metabolic stability with liver microsomes; format: in vitro ADME; settings: substrate initial conc. 1 µM, 37°C, up to 45 min
Experimental: (§1) Incubations with preparations of microsomes and cytosol and with plasma under conditions as described below are suitable to investigate the metabolic stability of test compounds (e.g. oxidative metabolism reactions and hydrolysis by esterases). The metabolic stability of the test compounds of examples 1 and 2 is investigated in liver microsomes and cytosol of humans, dogs and rats and in plasma of humans and rats.
(§2) Incubations of test compounds (final concentration: 1 µM) are performed with liver microsomes and cytosol (0.5 mg protein/ml) in Tris buffer (Tris-(hydroxymethyl)-aminomethane) pH 7.4 (0.1 M) containing magnesium chloride (5 mM) at 37°C for up to 45 min in a total volume of 100 µl. The reaction is initiated by addition of β-nicotinamide adenine dinucleotide phosphate, reduced form (NADPH, 1 mM) and terminated by addition of acetonitrile. After vortex mixing and centrifugation the supernatants are analyzed.
(§3) The samples are analyzed by on-line solid phase extraction and reversed phase HPLC coupled to electro-spray ionization tandem mass spectrometry. The measurements are performed on a triple quad mass spectrometer Quattro II (Micromass, Manchester, UK). The instrument operates at nominal mass resolution in SIR-mode. The analytes are quantified by detection of their quasimolecular ions [M+2H]^2+ m/z 1019 (Example 1) and m/z 1026 (Example 2).

[2] = Stability in plasma; format: in vitro ADME; settings: Rat Plasma; substrate initial conc. 1 µM; 37°C, up to 45 min
Experimental: as §1
Incubations of test substrates (final concentration: 1 µM) are performed with human and rat plasma (heparin) containing 0.1 M Tris buffer pH 7.4. The reaction is initiated by addition of the test compound at 37°C for up to 45 min and terminated by addition of acetonitrile. After vortex mixing and centrifugation the supernatants are analyzed.
as §3

[3] = Metabolic stability with liver cytosol; format: in vitro ADME; settings: substrate initial conc. 1 µM, 37°C, up to 45 min
Experimental: as §1, §2, §3

[4] = target: T1, human glucagon receptor (Homo sapiens, UniProt P47871); test: Glucagon binding assay (competition binding with 125I-glucagon, BHK-21 cell membranes)
T1 construct: expressed in transfected cells; host or cells: BHK-21(C-13) baby hamster kidney cells, stably transfected (pcDNA3.1 construct, G-418 selection); plasma membranes
T1 sequence (P47871 26-477): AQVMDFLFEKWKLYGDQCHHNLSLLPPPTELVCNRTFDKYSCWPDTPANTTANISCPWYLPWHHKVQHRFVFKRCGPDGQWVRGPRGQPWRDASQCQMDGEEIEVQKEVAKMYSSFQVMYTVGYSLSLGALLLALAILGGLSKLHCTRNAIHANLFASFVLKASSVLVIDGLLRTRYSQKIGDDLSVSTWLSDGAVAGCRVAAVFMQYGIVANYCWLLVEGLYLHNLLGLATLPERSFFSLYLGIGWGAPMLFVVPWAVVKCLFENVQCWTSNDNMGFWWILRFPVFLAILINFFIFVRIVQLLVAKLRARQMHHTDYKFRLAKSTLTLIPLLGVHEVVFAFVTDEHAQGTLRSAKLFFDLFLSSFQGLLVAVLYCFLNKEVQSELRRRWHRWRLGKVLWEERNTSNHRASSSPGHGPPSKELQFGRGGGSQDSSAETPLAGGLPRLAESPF
Experimental: Binding of peptides to the glucagon receptor was assayed in a competition binding-assay using a membrane fraction containing the cloned human glucagon receptor and radiolabeled glucagon. The cDNA coding for the human glucagon receptor was cloned into expression vector pcDNA3.1 (Invitrogene). Baby hamster kidney cells (BHK-21(C-13) cells (ATCC)) were transfected with the expression construct for the human glucagon receptor and a stably transfected cell clone was isolated after selection with G-418 (Gibco). Plasma membranes containing the human glucagon receptor were prepared from stably transfected BHK-21 cells. Cells were grown to confluence, washed and detached with ice cold PBS buffer (Gibco), containing 0.05% EDTA and collected in PBS buffer. The cells were collected by centrifugation and suspended in 20 volumes of ice-cold tris buffer (10 mM tris/HCl, pH7.2; 0.01 mM PMSF (Phenylmethylsulfonyl fluoride)) and incubated for 90 minutes. […] The protein-bound radioactivity is separated from unbound ligand by filtration and washing on a Multiscreen-[…] (Millipore) using GC/B filters (Packard) and measured after addition of 20 μl Microscint 20 in a topcount scintillation counter (Packard). The non-specific binding is defined as radioactivity bound in the presence of 1 μM glucagon (Wherl GmbH). Accordingly an IC50 value can be calculated from the results obtained in the above test method. […]

[5] = Solubility in buffer; format: physicochemical
Text: and the following solubilities:

CC[C@H](C)[C@@H]1NC(=O)[C@@H]2CC(=O)NCC(=O)N[C@@H](CC(C)C)C(=O)N3CCC[C@H]3C(=O)N[C@@H](Cc3c[nH]c4ccccc34)C(=O)NCC(=O)N[C@@H](CSSC[C@@H](C(=O)O)NC(=O)[C@H](C)NC(=O)[C@H](Cc3c[nH]c4ccccc34)NC(=O)[C@@H]3CCCN3C(=O)[C@H]([C@@H](C)O)NC(=O)[C@H](CC(N)=O)NC(=O)[C@H](Cc3c[nH]c4ccccc34)NC(=O)CNC(=O)[C@@H]3CCCN3C1=O)C(=O)N1CCC[C@H]1C(=O)N[C@@H](CO)C(=O)N2 [Example 1] (GLPWGCPSDIPGWNTPWAC-OH; disulfide 6-19; lactam N-9)
Half-lives, (t½ [min]) ([1]; Dog Micros): stable
Half-lives, (t½ [min]) ([1]; Human Micros): stable
Half-lives, (t½ [min]) ([1]; Rat Micros): stable
Half-lives, (t½ [min]) [2]: stable
Half-lives, (t½ [min]) ([3]; Dog Cytosol): stable
Half-lives, (t½ [min]) ([3]; Human Cytosol): stable
Half-lives, (t½ [min]) ([3]; Rat Cytosol): stable
IC50 ([4]; competition with 125I-glucagon, membranes with cloned human glucagon receptor, read-out: IC50): 100 nM
solubilities ([5]; Buffer pH 3.0): 0.003 mg/mL
solubilities ([5]; Buffer pH 7.4): 0.120 mg/mL
solubilities ([5]; Buffer pH 10.0): 0.092 mg/mL

CC[C@H](C)[C@@H]1NC(=O)[C@@H]2CC(=O)NCC(=O)N[C@@H](CC(C)C)C(=O)N3CCC[C@H]3C(=O)N[C@@H](Cc3c[nH]c4ccccc34)C(=O)NCC(=O)N[C@@H](CSSC[C@@H](C(=O)OC)NC(=O)[C@H](C)NC(=O)[C@H](Cc3c[nH]c4ccccc34)NC(=O)[C@@H]3CCCN3C(=O)[C@H]([C@@H](C)O)NC(=O)[C@H](CC(N)=O)NC(=O)[C@H](Cc3c[nH]c4ccccc34)NC(=O)CNC(=O)[C@@H]3CCCN3C1=O)C(=O)N1CCC[C@H]1C(=O)N[C@@H](CO)C(=O)N2 [Example 2] (GLPWGCPSDIPGWNTPWAC-OMe; disulfide 6-19; lactam N-9)
Half-lives, (t½ [min]) ([1]; Dog Micros): stable
Half-lives, (t½ [min]) ([1]; Human Micros): stable
Half-lives, (t½ [min]) ([1]; Rat Micros): stable
Half-lives, (t½ [min]) [2]: stable
IC50 [4]: 135 nM
solubilities ([5]; Buffer pH 3.0): 0.003 mg/mL
solubilities ([5]; Buffer pH 7.4): 0.002 mg/mL
solubilities ([5]; Buffer pH 10.0): 0.004 mg/mL
